What was measured:
Format in all cases: cell-based
[1] = test system: Nf1^−/−; Ink4a/Arf^+/− DNSCs; test: DNSC proliferation and viability, CellTiter-Glo Assay; conditions: cells Nf1−/−, 48 hrs incubation, serially diluted from 105 μM
Protocol: (§1) Nf1-Ink4a/Arf mutant DNSCs have increased cell cycle activity and proliferation in vitro, consistent with the in vivo phenotypes. The present study utilizes Nf1^−/− and Nf1^−/−; Ink4a/Arf^+/− mutant DNSCs obtained by transient infection of Nf1^flox/flox and Nf1^flox/flox; Ink4a/Arf^flox/+ DNSCs with an adenovirus carrying Cre recombinase. Selectivity of nitroxilone was compared between Nf1^−/− and Nf1^−/−; Ink4a/Arf^+/− DNSCs.
(§2) Nf1^−/− and Nf1^−/−; Ink4a/Arf^+/− DNSCs described above were treated with serially diluted nitroxoline starting from 105 μM and incubated for 48 hrs. After the incubation period, proliferation, viability and apoptosis assays were performed as described below: • DNSC proliferation and viability was assessed using the CellTiter-Glo Assay (Promega) which measures […]. […] After 10 minutes, the plates were read using a 96-well microplate luminometer. • To assess cellular apoptosis, the Caspase-Glo 3/7 kit (Promega) was utilized according to the manufacturer's instructions. […] After 10 minutes, plates were read using a 96 well luminometer to measure caspase 3/7 activity.

Nf1^−/− DNSCs [2] = test: as above; conditions: cells Nf1−/−; 48 hrs incubation; serially diluted from 105 μM
Protocol: as §1, §2

[3] = test system: Nf1^−/−; Ink4a/Arf^+/− DNSCs; test: Cellular apoptosis, Caspase-Glo 3/7 kit (caspase 3/7 activity); conditions: cells Nf1−/−, 48 hrs incubation, serially diluted from 105 μM
Protocol: as §1, §2

Nf1^−/− DNSCs [4] = test: as above; conditions: nf1−/− cells; 48 hrs incubation; serially diluted from 105 μM
Protocol: as §1, §2

O=[N+]([O-])c1ccc(O)c2ncccc12 [Nitroxoline, 5-nitroquinolin-8-ol]
concentrations at which the antiproliferative effect was observed [1]: greater than 3 μM | concentrations at which the antiproliferative effect was observed (Nf1^−/− DNSCs [2]): greater than 10 μM | concentrations at which the induction of apoptosis was evident [3]: greater than 10 μM | concentrations at which the induction of apoptosis was evident (Nf1^−/− DNSCs [4]): 30 to 100 µM

From patent US20260207580A1, “NITROXOLINE FOR USE IN THE TREATMENT OR PREVENTION OF A MALIGNANT PERIPHERAL NERVE SHEATH TUMOUR” (HEALX LTD, priority 2022, published 2026)
